Measured values taken from patent US12599672B2, “KRAS proteolysis targeting chimeras” (PAQ Therapeutics Inc., priority 2023, dated 2026).

Key:
KRAS G12V = molecular target: T1, KRAS G12V (Homo sapiens, UniProt P01116, G12V); assay: KRAS G12V HiBit assay; format: cell-based; details: SW620-KRAS (G12V)-HiBit-KI cells, compound treatment for 24 hours, class symbols
T1 construct: SW620-KRAS (G12V)-HiBit-KI cell (Pharmaron); host or cells: SW620-KRAS (G12V)-HiBit-KI cells (HiBiT knock-in at the endogenous KRAS locus)
How it was run: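 Luminescence from lytic Nano-Glo HiBiT detection with LgBiT read KRAS G12V levels after 24 h compound exposure. Dilutions were 10-point, 3-fold, from a 0.3 mM DMSO stock. Degradation activity was normalised to cells given 0.1% DMSO alone.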

KRAS G12D = molecular target: T2, KRAS G12D (Homo sapiens, UniProt P01116, G12D); assay: KRAS G12D HiBit assay; format: cell-based; details: AsPc-1-KRAS (G12D)-HiBit-KI cell, compound treatment for 24 hours; for DC50: absolute DC50
T2 construct: AsPc-1-KRAS (G12D)-HiBit-KI cell (Pharmaron); host or cells: AsPc-1-KRAS (G12D)-HiBit-KI cells (HiBiT knock-in at the endogenous KRAS locus)
How it was run: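 HiBiT luminescence, detected by adding lytic buffer, substrate and LgBiT protein, served as the KRAS G12D read-out. Compounds, serially diluted 3-fold over 10 points from 0.3 mM DMSO stock, were on cells for 24 h; percent inhibition normalized to cells given 0.1% DMSO only.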

[1] = numeric bounds given in place of class symbols

T1 sequence (P01116 1-188 isoform P01116-2 G12V): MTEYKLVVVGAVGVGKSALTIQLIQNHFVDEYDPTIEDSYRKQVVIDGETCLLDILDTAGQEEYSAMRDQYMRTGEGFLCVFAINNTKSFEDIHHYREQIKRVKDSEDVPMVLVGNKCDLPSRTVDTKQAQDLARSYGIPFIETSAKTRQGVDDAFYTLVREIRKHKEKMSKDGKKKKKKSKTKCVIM
T2 sequence (P01116 1-188 isoform P01116-2 G12D): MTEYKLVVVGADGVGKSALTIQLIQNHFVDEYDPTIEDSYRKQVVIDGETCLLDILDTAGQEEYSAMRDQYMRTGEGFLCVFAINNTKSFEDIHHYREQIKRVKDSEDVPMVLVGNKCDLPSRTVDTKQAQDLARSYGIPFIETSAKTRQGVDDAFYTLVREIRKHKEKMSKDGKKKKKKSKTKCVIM

DC50 (KRAS G12V) [nM]	DC50 (KRAS G12D; class symbols) [nM]	DC50 (KRAS G12D; [1]) [nM]	Dmax (KRAS G12D; class symbols) [%]	Structure (SMILES)
> 100	> 300	–	–	CCc1c(F)ccc2cccc(-c3ncc4c(N5CCC[C@@](C)(O)C5)nc(OC[C@@]56CCCN5[C@H](COC(=O)NCCOc5ccc7c(c5)n(C)c(=O)n7C5CCC(=O)NC5=O)CC6)nc4c3F)c12 (stereo partly drawn) [Compound 111, ((3S,7aS)-7a-(((7-(8-ethyl-7-fluoronaphthalen-1-yl)-8-fluoro-4-((R)-3-hydroxy-3-methylpiperidin-1-yl)pyrido[4,3-d]pyrimidin-2-yl)oxy)methyl)hexahydro-1H-pyrrolizin-3-yl)methyl (2-((1-(2,6-dioxopiperidin-3-yl)-3-methyl-2-oxo-2,3-dihydro-1H-benzo[d]imidazol-5-yl)oxy)ethyl) carbamate]
> 100	> 300	–	–	C#Cc1c(F)ccc2cccc(-c3ncc4c(N5CCCC(C#N)CC5)nc(OC[C@@]56CCCN5[C@H](COC(=O)NCCOc5ccc7c(c5)n(C)c(=O)n7C5CCC(=O)NC5=O)CC6)nc4c3F)c12 (stereo partly drawn) [Compound 116, ((3S,7aS)-7a-(((4-(4-cyanoazepan-1-yl)-7-(8-ethynyl-7-fluoronaphthalen-1-yl)-8-fluoropyrido[4,3-d]pyrimidin-2-yl)oxy)methyl)hexahydro-1H-pyrrolizin-3-yl)methyl (2-((1-(2,6-dioxopiperidin-3-yl)-3-methyl-2-oxo-2,3-dihydro-1H-benzo[d]imidazol-5-yl)oxy)ethyl) carbamate]
> 100	> 300	–	–	C#Cc1c(F)ccc2cccc(-c3ncc4c(N5CCCC(C#N)CC5)nc(OC[C@@]56CCCN5[C@H](COC(=O)NCCOCCOc5ccc7c(c5)n(C)c(=O)n7C5CCC(=O)NC5=O)CC6)nc4c3F)c12 (stereo partly drawn) [Compound 117, ((3S,7aS)-7a-(((4-(4-Cyanoazepan-1-yl)-7-(8-ethynyl-7-fluoronaphthalen-1-yl)-8-fluoropyrido[4,3-d]pyrimidin-2-yl)oxy)methyl)hexahydro-1H-pyrrolizin-3-yl)methyl (2-(2-((1-(2,6-dioxopiperidin-3-yl)-3-methyl-2-oxo-2,3-dihydro-1H-benzo[d]imidazol-5-yl)oxy)ethoxy)ethyl) carbamate]
10 to 100	< 100	–	–	C#Cc1c(F)ccc2cc(O)cc(-c3ncc4c(N5CCC[C@@](C)(O)C5)nc(OC[C@@]56CCCN5[C@H](COC(=O)N5CCC(OCCC#Cc7cccc8c7n(C)c(=O)n8C7CCC(=O)NC7=O)CC5)CC6)nc4c3F)c12 (stereo partly drawn) [Compound 127, ((3S,7aS)-7a-(((7-(8-Ethynyl-7-fluoro-3-hydroxynaphthalen-1-yl)-8-fluoro-4-((R)-3-hydroxy-3-methylpiperidin-1-yl)pyrido[4,3-d]pyrimidin-2-yl)oxy)methyl)hexahydro-1H-pyrrolizin-3-yl)methyl 4-((4-(1-(2,6-dioxopiperidin-3-yl)-3-methyl-2-oxo-2,3-dihydro-1H-benzo[d]imidazol-4-yl)but-3-yn-1-yl)oxy)piperidine-1-carboxylate]
> 100	> 300	–	–	C#Cc1c(F)ccc2cccc(-c3ncc4c(N5CCC[C@@](C)(O)C5)nc(OC[C@@]56CCCN5[C@H](COC(=O)N5CCC(N7CCC(c8ccc9c(c8)n(C)c(=O)n9C8CCC(=O)NC8=O)CC7)CC5)CC6)nc4c3F)c12 (stereo partly drawn) [Compound 128, ((3S,7aS)-7a-(((7-(8-Ethynyl-7-fluoronaphthalen-1-yl)-8-fluoro-4-((R)-3-hydroxy-3-methylpiperidin-1-yl)pyrido[4,3-d]pyrimidin-2-yl)oxy)methyl)hexahydro-1H-pyrrolizin-3-yl)methyl 4-(1-(2,6-dioxopiperidin-3-yl)-3-methyl-2-oxo-2,3-dihydro-1H-benzo[d]imidazol-5-yl)-[1,4′-bipiperidine]-1′-carboxylate]
> 100	> 300	–	–	C#Cc1c(F)ccc2cc(O)cc(-c3ncc4c(N5CCC[C@@](C)(O)C5)nc(OC[C@@]56CCCN5[C@H](COC(=O)N5CCC(N7CCC(c8ccc9c(c8)n(C)c(=O)n9C8CCC(=O)NC8=O)CC7)CC5)CC6)nc4c3F)c12 (some centres unmarked) [Compound 129]
> 100	> 300	–	–	C#Cc1c(F)ccc2cccc(-c3ncc4c(N5CCC[C@@](C)(O)C5)nc(OC[C@@]56CCCN5[C@H](COC(=O)N5CC(OCC7CCN(c8ccc9c(c8)n(C)c(=O)n9C8CCC(=O)NC8=O)CC7)C5)CC6)nc4c3F)c12 (stereo partly drawn) [Compound 130, ((3S,7aS)-7a-(((7-(8-Ethynyl-7-fluoronaphthalen-1-yl)-8-fluoro-4-((R)-3-hydroxy-3-methylpiperidin-1-yl)pyrido[4,3-d]pyrimidin-2-yl)oxy)methyl)hexahydro-1H-pyrrolizin-3-yl)methyl 3-((1-(1-(2,6-dioxopiperidin-3-yl)-3-methyl-2-oxo-2,3-dihydro-1H-benzo[d]imidazol-5-yl)piperidin-4-yl)methoxy) azetidine-1-carboxylate]
> 100	> 300	–	–	C#Cc1c(F)ccc2cccc(-c3ncc4c(N5CCC[C@@](C)(O)C5)nc(OC[C@]56CCCN5[C@@H](COC(=O)N5CCC(CN7CCC(c8ccc9c(c8)n(C)c(=O)n9C8CCC(=O)NC8=O)CC7)CC5)CC6)nc4c3F)c12 (some centres unmarked) [Compound 131]
10 to 100	< 100	–	–	C#Cc1c(F)ccc2cc(O)cc(-c3ncc4c(N5CCC[C@@](C)(O)C5)nc(OC[C@@]56CCCN5[C@H](COC(=O)N5CCC(CN7CCC(c8cccc9c8n(C)c(=O)n9C8CCC(=O)NC8=O)CC7)CC5)CC6)nc4c3F)c12 (some centres unmarked) [Compound 133]
> 100	> 300	–	–	C#Cc1c(F)ccc2cc(O)cc(-c3ncc4c(N5CCC[C@@](C)(O)C5)nc(OC[C@@]56CCCN5[C@H](COC(=O)N5CCC(CN7CCC(c8ccc9c(c8)n(C8CCC(=O)NC8=O)c(=O)n9C)CC7)CC5)CC6)nc4c3F)c12 (some centres unmarked) [Compound 135]
> 100	–	> 100	–	C#Cc1c(F)ccc2cccc(-c3ncc4c(N5CCC[C@@](C)(O)C5)nc(OC[C@@]56CCCN5[C@@H](COC(=O)N5CCC(CN7CCC(c8ccc9c(c8)n(C)c(=O)n9C8CCC(=O)NC8=O)CC7)CC5)CC6)nc4c3F)c12 (some centres unmarked) [Compound 138]
< 10	< 100	–	–	C#Cc1cccc2cc(O)cc(-c3ncc4c(N5CCC[C@@](C)(O)C5)nc(OC[C@@]56CCCN5[C@H](COC(=O)N5CCC(CN7CCC(c8ccc9c(c8)n(C)c(=O)n9C8CCC(=O)NC8=O)CC7)CC5)CC6)nc4c3F)c12 (some centres unmarked) [Compound 144]
< 10	< 100	–	–	CCc1c(F)ccc2cc(O)cc(-c3ccc4c(N5CCC[C@@](C)(O)C5)nc(OC[C@@]56CCCN5[C@H](COC(=O)N5CCC(CN7CCC(c8ccc9c(c8)n(C)c(=O)n9C8CCC(=O)NC8=O)CC7)CC5)CC6)nc4c3F)c12 (some centres unmarked) [Compound 146]
> 100	–	> 100	–	C#Cc1c(F)ccc2cccc(-c3ncc4c(N5CCC[C@@](C)(O)C5)nc(OC[C@@]56CCCN5[C@H](COC(=O)N5CCC(N7CCC(c8cccc9c8n(C)c(=O)n9C8CCC(=O)NC8=O)CC7)CC5)CC6)nc4c3F)c12 (some centres unmarked) [Compound 147]
> 100	–	> 100	–	C#Cc1c(F)ccc2cccc(-c3ncc4c(N5CCC[C@@](C)(O)C5)nc(OC[C@@]56CCCN5[C@H](COC(=O)N5CCC(C7CCN(c8ccc9c(c8)n(C)c(=O)n9C8CCC(=O)NC8=O)CC7)CC5)CC6)nc4c3F)c12 (some centres unmarked) [Compound 152]
> 100	–	> 100	–	C#Cc1c(F)ccc2cccc(-c3ncc4c(N5CCC[C@@](C)(O)C5)nc(OC[C@@]56CCCN5[C@H](COC(=O)N5CCC(COC7CN(c8ccc9c(c8)n(C)c(=O)n9C8CCC(=O)NC8=O)C7)CC5)CC6)nc4c3F)c12 (some centres unmarked) [Compound 153]
> 100	> 300	–	15 to 50	C[C@H]1CN(CCOCCOc2ccc3c(c2)n(C)c(=O)n3C2CCC(=O)NC2=O)CCCN1c1nccc(-c2noc([C@@]3(C)CCCc4sc(N)c(C#N)c43)n2)n1 (stereo partly drawn) [Compound 209, (4S)-2-amino-4-(3-(2-((2S)-4-(2-(2-((1-(2,6-dioxopiperidin-3-yl)-3-methyl-2-oxo-2,3-dihydro-1H-benzo[d]imidazol-5-yl)oxy)ethoxy)ethyl)-2-methyl-1,4-diazepan-1-yl)pyrimidin-4-yl)-1,2,4-oxadiazol-5-yl)-4-methyl-4,5,6,7-tetrahydrobenzo[b]thiophene-3-carbonitrile]
> 100	> 300	–	15 to 50	C[C@H]1CN(CC(=O)N2CCC(CN3CCC(c4ccc5c(c4)n(C)c(=O)n5C4CCC(=O)NC4=O)CC3)CC2)CCCN1c1nccc(-c2noc([C@@]3(C)CCCc4sc(N)c(C#N)c43)n2)n1 (stereo partly drawn) [Compound 210, (4S)-2-amino-4-(3-{2-[(2S)-4-{2-[4-({4-[1-(2,6-dioxopiperidin-3-yl)-3-methyl-2-oxo-1,3-benzodiazol-5-yl]piperidin-1-yl}methyl)piperidin-1-yl]-2-oxoethyl}-2-methyl-1,4-diazepan-1-yl]pyrimidin-4-yl}-1,2,4-oxadiazol-5-yl)-4-methyl-6,7-dihydro-5H-1-benzothiophene-3-carbonitrile]
